Measured values: patent publication US11382889B2, “NRF2 activators for the prevention and/or treatment of axonal degeneration” (priority 2018, dated 2022)

System: X-ALD fibroblasts
Assay: NRF2 response (HMOX1, NQO1, GCLC expression) in X-ALD patient fibroblasts incubated with excess VLCFA
Assay type: cell-based, human
Conditions: normalized to RPLP0, fold change to vehicle
Experimental: This means that the NRF-2 target genes HMOX1, NQO1 and GCLC increase their expression when incubated with excess VLCFA. See FIG. 4 (n=8 per genotype and condition). Gene expression normalized relative to RPLP0. Quantification depicted as fold change to vehicle-treated (Veh) fibroblasts.

Row | Compound | NRF2 response: expression of NRF-2 target genes HMOX1, NQO1 and GCLC
1 | Cn1cc(C2=C(c3ccc(Cl)cc3Cl)C(=O)NC2=O)c2ccccc21 [SB216763] | restore a normal NRF2 response
2 | Cc1c[nH]c(-c2cnc(NCCNc3ccc(C#N)cn3)nc2-c2ccc(Cl)cc2Cl)n1 [CT99021] | restore a normal NRF2 response
